In PubChem BioAssay (NCI):
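Grown in 96-well plates, cells were treated for 48 hours with each compound at five concentrations. Insufficient inhibition: endpoint recorded as highest concentration tested. The concentration for 50% growth inhibition is given as GI50. The concentration for full growth arrest is given as TGI.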

Legend:
Assay in all cases: growth of human tumour cells (NCI), 48 h
A498 renal = test system: A498 renal
COLO 205 colon = test system: COLO 205 colon
HT29 colon = test system: HT29 colon
IGROV1 ovarian = test system: IGROV1 ovarian
SK-MEL-5 melanoma = test system: SK-MEL-5 melanoma
SK-OV-3 ovarian = test system: SK-OV-3 ovarian
SN12C renal = test system: SN12C renal
T-47D breast = test system: T-47D breast

SMILES | GI50 (A498 renal) | TGI (A498 renal) | GI50 (COLO 205 colon) | TGI (COLO 205 colon) | GI50 (HT29 colon) | TGI (HT29 colon) | GI50 (IGROV1 ovarian) | TGI (IGROV1 ovarian) | GI50 (SK-MEL-5 melanoma) | TGI (SK-MEL-5 melanoma) | GI50 (SK-OV-3 ovarian) | TGI (SK-OV-3 ovarian) | GI50 (SN12C renal) | TGI (SN12C renal) | GI50 (T-47D breast) | TGI (T-47D breast)
O=c1c(Oc2ccc(F)cc2F)cc2cnc(NC3CCOCC3)nc2n1CCCO | > 18.3 µM | > 25 µM | > 25 µM | > 25 µM | > 25 µM | > 25 µM | > 25 µM | > 25 µM | > 25 µM | > 25 µM | > 25 µM | > 25 µM | > 25 µM | > 25 µM | > 25 µM | > 25 µM
CCC[CH2][Sn]([CH2]CCC)([CH2]CCC)[O]c1ccc(Cl)cc1Cl | 0.0565 µM | 0.21 µM | 0.16 µM | 0.31 µM | 0.118 µM | 0.293 µM | 0.083 µM | 0.223 µM | 0.138 µM | 0.27 µM | 0.137 µM | 0.276 µM | 0.142 µM | 0.303 µM | 0.128 µM | 0.307 µM
COc1ccc2c(c1)C(=O)c1c-2n(CCCN=[N+]=[N-])c(=O)c2cc(OC)c(OC)cc12 | > 100 µM | > 100 µM | > 100 µM | > 100 µM | > 100 µM | > 100 µM | 16 µM | > 100 µM | > 100 µM | > 100 µM | 41.6 µM | > 100 µM | 64.7 µM | > 100 µM | > 100 µM | > 100 µM
C=C(C)C(=O)O[C@H]1C[C@@]23O[C@@H]2CCC(=C[C@H]2OC(=O)C(=C)[C@H]12)COC3O (stereo partly drawn) |  | > 100 µM |  | 56.8 µM |  | > 100 µM |  | > 100 µM |  | > 100 µM |  | > 100 µM |  | > 100 µM |  | > 100 µM
CC(C(=O)c1ccccc1)C(c1ccccc1)N1CCOCC1 (stereo not drawn) |  | > 100 µM |  | > 100 µM |  | > 100 µM |  | > 100 µM |  | > 100 µM |  | > 100 µM |  | > 100 µM |  | > 100 µM
Cc1nc(SCC(=O)Nc2nc(-c3ccc(Cl)cc3)cs2)n(Nc2ccccc2)c1C | 2.24 µM | 10.5 µM | 4.13 µM | 14.5 µM | 3.78 µM | 15.4 µM | 3.36 µM | 20.6 µM | 2.24 µM | 6.31 µM | 5.91 µM | 19.8 µM | 2.38 µM | 10.1 µM | 1.4 µM | 5.24 µM
Nc1ccc(C2=NN(c3ccccc3)C(c3ccc(Cl)cc3)C2)cc1 (stereo not drawn) | 1.9 µM | 13 µM | 2.15 µM | 4.54 µM | 1.96 µM | 4.49 µM | 2.89 µM | 8.15 µM | 2.71 µM | 8.48 µM | 9.09 µM | 29.9 µM | 1.85 µM | 4.53 µM | 2.06 µM | 4.48 µM
CC[N+](CC)=c1sc2c(s1)C(c1ccc(Cl)cc1)Oc1ccc(Cl)cc1-2 (stereo not drawn) | 3.37 µM | 10.2 µM | 1.65 µM | 3.77 µM | 2.2 µM | 5.07 µM | 1.6 µM | 10.7 µM | 1.22 µM | 2.53 µM | 2.51 µM | 8.72 µM | 1.33 µM | 3.33 µM | 1.67 µM | 6.39 µM
O=C(CO[N+](=O)[O-])Nc1ccc(C(=O)/C=C/c2ccc(Cl)cc2)cc1 | 15.4 µM | 54.9 µM | 2.57 µM | 6.09 µM | 2.36 µM | 6.36 µM | 13.4 µM | 30 µM | 4.23 µM | 15.3 µM | 10.1 µM | 65.9 µM | 3.14 µM | 14.1 µM | 3.26 µM | 14.9 µM
COc1ccc(C(=O)/C=C/c2ccc(C)cc2)cc1OC | 12.5 µM | 25 µM | 10.1 µM | 21.6 µM | 3.93 µM | 15.3 µM | 12.3 µM | 58.6 µM | 12.5 µM | 25 µM | 14 µM | 27.4 µM | 13.1 µM | 26.9 µM | 3.05 µM | 15.8 µM
Oc1[nH]c2ccccc2c1N=Nc1ccccn1 |  | 70.6 µM |  | > 100 µM |  | 55.5 µM |  | 90.7 µM |  | > 100 µM |  | 38.1 µM |  | > 100 µM |  | > 100 µM
S=C(Nc1ccc(Br)cc1)Nc1ccc(Br)cc1 | 5.38 µM | > 100 µM | 7.82 µM | > 100 µM | 7.22 µM | > 100 µM | 7.41 µM | > 100 µM | 5.4 µM | > 100 µM | > 100 µM | > 100 µM | 9.72 µM | > 100 µM | 2.99 µM | > 100 µM
